# Test results published in patent publication US20230399312A1, “SUBSTITUTED PYRIMIDINES AND METHODS OF USE” (THERAVANCE BIOPHARMA R&D IP, LLC, priority 2020, published 2023).
# How the values were obtained:
# [1] = system: TGF-β-stimulated SMAD3 phosphorylation in BEAS-2B cells; assay: Cellular ALK5 potency assay, inhibition of TGF-β stimulated pSMAD3 formation in BEAS-2B cells; type: cell-based; settings: Homo sapiens, pSMAD3, TGF-β 10 ng/mL, read-out: BEAS2B pIC50 (converted)
# Outline: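 Human lung epithelial BEAS-2B cells were preincubated 1 h at 37 °C with compound in HBSS/HEPES/1% BSA, then stimulated 30 min with 10 ng/mL TGF-β. pSMAD3 in lysates was quantified by AlphaLISA relative to untreated stimulated cells; reported as pIC50.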
# [2] = target: T1, recombinant human ALK5 (TGF-βR1) protein (Homo sapiens, UniProt P36897); assay: Biochemical ALK5 (TGF-βR1) assay to measure pKi (LANCE Ultra ULight kinase assay); settings: apparent pKi, converted from pIC50 by Cheng-Prusoff
# T1 construct: purchased Life Technologies PR9075A
# T1 sequence (P36897 34-503): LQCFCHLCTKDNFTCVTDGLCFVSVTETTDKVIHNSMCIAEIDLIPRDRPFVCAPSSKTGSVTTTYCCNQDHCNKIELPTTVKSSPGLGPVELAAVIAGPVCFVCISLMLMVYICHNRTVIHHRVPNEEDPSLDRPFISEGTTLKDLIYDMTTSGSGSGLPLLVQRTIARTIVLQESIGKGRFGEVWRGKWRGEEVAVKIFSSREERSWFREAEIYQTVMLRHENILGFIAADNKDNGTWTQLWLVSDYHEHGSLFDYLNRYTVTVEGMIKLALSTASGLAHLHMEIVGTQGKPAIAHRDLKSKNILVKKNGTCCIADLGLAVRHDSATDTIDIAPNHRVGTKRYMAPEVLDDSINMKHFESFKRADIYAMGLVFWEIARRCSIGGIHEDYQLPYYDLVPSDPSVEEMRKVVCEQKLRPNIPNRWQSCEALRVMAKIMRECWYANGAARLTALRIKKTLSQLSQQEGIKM
# Outline: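 Enzyme was preincubated with compound for 60 min at room temperature, then ATP (added from a 125 μM 5× stock with 2 mM DTT) started a 60 min reaction at 37 °C. EDTA plus Eu-anti-phospho-Topo2α (Thr1342) antibody stopped it; TR-FRET pIC50 values were converted to pKi by Cheng-Prusoff.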
Structure (SMILES),IC50 [1],Ki [2]
"CC(=O)N1CC(COC(=O)c2cc(Nc3nccc(Nc4ccnc(-c5cccc(C)n5)n4)n3)cs2)C1 [Compound 576, (1-acetylazetidin-3-yl)methyl 4-[[4-[[2-(6-methyl-2-pyridyl)pyrimidin-4-yl]amino]pyrimidin-2-yl]amino]thiophene-2-carboxylate]",25.1 to 158 nM,0.0398 to 0.316 nM
"Cc1cccc(-c2nccc(Nc3ccnc(Nc4ccc(C(=O)OC[C@H]5CCCN5)nc4)n3)n2)n1 [Compound 577, [(2R)-pyrrolidin-2-yl]methyl 5-[[4-[[2-(6-methyl-2-pyridyl)pyrimidin-4-yl]amino]pyrimidin-2-yl]amino]pyridine-2-carboxylate]",25.1 to 158 nM,0.0398 to 0.316 nM
"Cc1cccc(-c2nccc(Nc3ccnc(Nc4ncc(C(=O)OC[C@H]5CCCCN5)s4)n3)n2)n1 [Compound 578, [(2R)-2-piperidyl]methyl 2-[[4-[[2-(6-methyl-2-pyridyl)pyrimidin-4-yl]amino]pyrimidin-2-yl]amino]thiazole-5-carboxylate]",200 to 1260 nM,3.98 to 31.6 nM
"Cc1cccc(-c2nccc(Nc3ccnc(Nc4cc(C(=O)OC5CNC5)ccn4)n3)n2)n1 [Compound 579, azetidin-3-yl 2-[[4-[[2-(6-methyl-2-pyridyl)pyrimidin-4-yl]amino]pyrimidin-2-yl]amino]pyridine-4-carboxylate]",25.1 to 158 nM,3.98 to 31.6 nM
"Cc1cccc(-c2nccc(Nc3ccnc(Nc4nc(C(=O)OC[C@@H]5CCCNC5)cs4)n3)n2)n1 [Compound 580, [(3R)-3-piperidyl]methyl 2-[[4-[[2-(6-methyl-2-pyridyl)pyrimidin-4-yl]amino]pyrimidin-2-yl]amino]thiazole-4-carboxylate]",200 to 1260 nM,0.398 to 3.16 nM
"Cc1cccc(-c2nccc(Nc3ccnc(Nc4ccc(C(=O)OCCN5CCNCC5)cn4)n3)n2)n1 [Compound 581, 2-piperazin-1-ylethyl 6-[[4-[[2-(6-methyl-2-pyridyl)pyrimidin-4-yl]amino]pyrimidin-2-yl]amino]pyridine-3-carboxylate]",25.1 to 158 nM,3.98 to 31.6 nM
"Cc1cccc(-c2nccc(Nc3ccnc(Nc4ccc(C(=O)OC[C@H]5CCNC5)nc4)n3)n2)n1 [Compound 582, [(3S)-pyrrolidin-3-yl]methyl 5-[[4-[[2-(6-methyl-2-pyridyl)pyrimidin-4-yl]amino]pyrimidin-2-yl]amino]pyridine-2-carboxylate]",25.1 to 158 nM,0.0398 to 0.316 nM
"Cc1cccc(-c2nccc(Nc3ccnc(Nc4csc(C(=O)OC[C@H]5CCCN5)c4)n3)n2)n1 [Compound 583, [(2R)-pyrrolidin-2-yl]methyl 4-[[4-[[2-(6-methyl-2-pyridyl)pyrimidin-4-yl]amino]pyrimidin-2-yl]amino]thiophene-2-carboxylate]",25.1 to 158 nM,0.0398 to 0.316 nM
"Cc1cccc(-c2nccc(Nc3ccnc(Nc4ccc(C(=O)OC[C@@H]5CCNC5)nc4)n3)n2)n1 [Compound 584, [(3R)-pyrrolidin-3-yl]methyl 5-[[4-[[2-(6-methyl-2-pyridyl)pyrimidin-4-yl]amino]pyrimidin-2-yl]amino]pyridine-2-carboxylate]",25.1 to 158 nM,0.0398 to 0.316 nM
"Cc1cccc(-c2nccc(Nc3ccnc(Nc4csc(C(=O)O)n4)n3)n2)n1 [Compound 585, 4-[[4-[[2-(6-methyl-2-pyridyl)pyrimidin-4-yl]amino]pyrimidin-2-yl]amino]thiazole-2-carboxylic acid]",200 to 1260 nM,3.98 to 31.6 nM
"Cc1cccc(-c2nccc(Nc3ccnc(Nc4nc(C(=O)OC[C@H]5CCCCN5)cs4)n3)n2)n1 [Compound 586, [(2R)-2-piperidyl]methyl 2-[[4-[[2-(6-methyl-2-pyridyl)pyrimidin-4-yl]amino]pyrimidin-2-yl]amino]thiazole-4-carboxylate]",25.1 to 158 nM,0.398 to 3.16 nM
"Cc1cccc(-c2nccc(Nc3ccnc(Nc4ccc(C(=O)OCC5CCNCC5)nc4)n3)n2)n1 [Compound 587, 4-piperidylmethyl 5-[[4-[[2-(6-methyl-2-pyridyl)pyrimidin-4-yl]amino]pyrimidin-2-yl]amino]pyridine-2-carboxylate]",25.1 to 158 nM,0.0398 to 0.316 nM
